Experimental data: US8802597B2, “Herbicidal pyrimidines” (E I du Pont de Nemours and Company, priority 2003, dated 2014)

How the values were obtained:
Type in all cases: in vivo
[1] = tested on: barnyardgrass (Echinochloa crus-galli); test: Test A pre/postemergence
Outline: (§1)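 Seeds sown in loam–sand blend received a preemergence directed soil spray of test chemical in non-phytotoxic solvent with surfactant; same-formulation postemergence spray given concurrently to plants 2–10 cm tall at 1- to 2-leaf stage. Greenhouse ~ten days, then visual injury rating versus untreated controls, 0 (no effect) to 100 (complete control).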

[2] = tested on: crabgrass (Digitaria sanguinalis); test: Test A pre/postemergence
Outline: as §1

[3] = tested on: giant foxtail (Setaria faberi); test: Test A pre/postemergence
Outline: as §1

[4] = tested on: morningglory (Ipomoea spp.); test: Test A pre/postemergence
Outline: as §1

[5] = tested on: redroot pigweed (Amaranthus retroflexus); test: Test A pre/postemergence
Outline: as §1

[6] = tested on: velvetleaf (Abutilon theophrasti); test: Test A pre/postemergence
Outline: as §1

[7] = tested on: barnyardgrass (Echinochloa crus-galli); test: Test E flooded paddy water application; conditions: Flood, 21 days, scale 0 to 100 (0 no effect, 100 complete control)
Text: (§2) Three plastic pots (ca. 16-cm diameter) per rate were partially filled with sterilized Tama silt loam soil comprising a 35:50:15 ratio of sand, silt and clay and 2.6% organic matter. Separate plantings for each of the three pots were as follows. Seeds from the U.S. of ducksalad (Heteranthera limosa), smallflower umbrella sedge (Cyperus difformis) and purple redstem (Ammannia coccinea), were planted into one 16-cm pot for each rate. Seeds from the U.S. of rice flatsedge (Cyperus iria), bearded (brdd.) sprangletop (Leptochloa fusca ssp. fascicularis), one stand of 9 or 10 water seeded rice seedlings (Oryza sativa cv. ‘Japonica-M202’), and one stand of 6 transplanted rice seedlings (Oryza sativa cv. ‘Japonica-M202’) were planted into one 16-cm pot for each rate. Seeds from the U.S. of barnyardgrass (Echinochloa crus-galli), late watergrass (Echinochloa oryzicola), early watergrass (Echinochloa oryzoides) and junglerice (Echinochloa colona) were planted into one 16-cm pot for each rate. Plantings were sequential so that crop and weed species were at the 2.0 to 2.5-leaf stage at time of treatment.
(§3) Potted plants were grown in a greenhouse with day/night temperature settings of 29.5/26.7° C., and supplemental balanced lighting was provided to maintain a 16-hour photoperiod. Test pots were maintained in the greenhouse until test completion.
(§4) At time of treatment, test pots were flooded to 3 cm above the soil surface, treated by application of test compounds directly to the paddy water, and then maintained at that water depth for the duration of the test. Effects of treatments on rice and weeds were visually evaluated by comparison to untreated controls after 21 days. Plant response ratings, summarized in Table E, are based on a scale of 0 to 100 where 0 is no effect and 100 is complete control. A dash (-) response means no test result.

[8] = tested on: bearded (brdd.) sprangletop (Leptochloa fusca ssp. fascicularis); test: Test E flooded paddy water application; conditions: Flood, 21 days, scale 0 to 100 (0 no effect, 100 complete control)
Text: as §2, §3, §4

[9] = tested on: ducksalad (Heteranthera limosa); test: Test E flooded paddy water application; conditions: Flood, 21 days, scale 0 to 100 (0 no effect, 100 complete control)
Text: as §2, §3, §4

[10] = tested on: early watergrass (Echinochloa oryzoides); test: Test E flooded paddy water application; conditions: Flood, 21 days, scale 0 to 100 (0 no effect, 100 complete control)
Text: as §2, §3, §4

[11] = tested on: junglerice (Echinochloa colona); test: Test E flooded paddy water application; conditions: Flood, 21 days, scale 0 to 100 (0 no effect, 100 complete control)
Text: as §2, §3, §4

[12] = tested on: late watergrass (Echinochloa oryzicola); test: Test E flooded paddy water application; conditions: Flood, 21 days, scale 0 to 100 (0 no effect, 100 complete control)
Text: as §2, §3, §4

[13] = tested on: purple redstem (Ammannia coccinea); test: Test E flooded paddy water application; conditions: Flood, 21 days, scale 0 to 100 (0 no effect, 100 complete control)
Text: as §2, §3, §4

[14] = tested on: rice flatsedge (Cyperus iria); test: Test E flooded paddy water application; conditions: Flood, 21 days, scale 0 to 100 (0 no effect, 100 complete control)
Text: as §2, §3, §4

[15] = tested on: transplanted rice seedlings (Oryza sativa cv. ‘Japonica-M202’); test: Test E flooded paddy water application; conditions: Flood, 21 days, scale 0 to 100 (0 no effect, 100 complete control)
Text: as §2, §3, §4

[16] = tested on: water seeded rice seedlings (Oryza sativa cv. ‘Japonica-M202’); test: Test E flooded paddy water application; conditions: Flood, 21 days, scale 0 to 100 (0 no effect, 100 complete control)
Text: as §2, §3, §4

[17] = Postemergence, 125 g ai/ha, 0 to 100 scale (0 no effect, 100 complete control)
[18] = Postemergence, 500 g ai/ha, 0 to 100 scale (0 no effect, 100 complete control)
[19] = Preemergence, 125 g ai/ha, 0 to 100 scale where 0 is no effect and 100 is complete control, approximately ten days
[20] = Preemergence, 500 g ai/ha, 0 to 100 scale where 0 is no effect and 100 is complete control, approximately ten days

CCOC(=O)c1nc(-c2ccc(CC)cc2)nc(N)c1Cl [Compound 99]
95: Plant response rating, Ducksalad ([9]; 16 g ai/ha)
35: Plant response rating, Velvetleaf [6, 18]
5: Plant response rating, Pigweed [5, 17]
20: Rice, Transplanted plant response rating ([15]; 250 g ai/ha) | Rice, Water Seeded plant response rating ([16]; 125 g ai/ha) | Rice, Water Seeded plant response rating ([16]; 250 g ai/ha)
45: Redstem plant response rating ([13]; 250 g ai/ha)
100: Ducksalad plant response rating ([9]; 32 g ai/ha) | Ducksalad plant response rating ([9]; 64 g ai/ha) | Ducksalad plant response rating ([9]; 125 g ai/ha) | Ducksalad plant response rating ([9]; 250 g ai/ha) | Flatsedge, Rice plant response rating ([14]; 64 g ai/ha) | Flatsedge, Rice plant response rating ([14]; 125 g ai/ha) | Flatsedge, Rice plant response rating ([14]; 250 g ai/ha) | Plant response rating, Flatsedge, Rice ([14]; 16 g ai/ha)
10: Plant response rating, Pigweed [5, 18]
0: Plant response rating, Barnyardgrass [1, 17] | Plant response rating, Barnyardgrass [1, 18] | Plant response rating, Barnyardgrass [1, 19] | Plant response rating, Barnyardgrass [1, 20] | Plant response rating, Crabgrass [2, 17] | Plant response rating, Crabgrass [2, 18] | Plant response rating, Crabgrass [2, 19] | Plant response rating, Crabgrass [2, 20] | Plant response rating, Foxtail, Giant [3, 17] | Plant response rating, Foxtail, Giant [3, 18] | Plant response rating, Foxtail, Giant [3, 19] | Plant response rating, Foxtail, Giant [3, 20] | Plant response rating, Morningglory [4, 17] | Plant response rating, Morningglory [4, 18] | Plant response rating, Morningglory [4, 19] | Plant response rating, Morningglory [4, 20] | Plant response rating, Pigweed [5, 19] | Plant response rating, Pigweed [5, 20] | Plant response rating, Velvetleaf [6, 17] | Plant response rating, Velvetleaf [6, 19] | Plant response rating, Velvetleaf [6, 20] | Barnyardgrass plant response rating ([7]; 32 g ai/ha) | Barnyardgrass plant response rating ([7]; 64 g ai/ha) | Barnyardgrass plant response rating ([7]; 125 g ai/ha) | Barnyardgrass plant response rating ([7]; 250 g ai/ha) | Plant response rating, Barnyardgrass ([7]; 16 g ai/ha) | Sprangletop, Brdd. plant response rating ([8]; 32 g ai/ha) | Sprangletop, Brdd. plant response rating ([8]; 64 g ai/ha) | Sprangletop, Brdd. plant response rating ([8]; 125 g ai/ha) | Sprangletop, Brdd. plant response rating ([8]; 250 g ai/ha) | Plant response rating, Sprangletop, Brdd. ([8]; 16 g ai/ha) | Watergrass, Early plant response rating ([10]; 32 g ai/ha) | Watergrass, Early plant response rating ([10]; 64 g ai/ha) | Watergrass, Early plant response rating ([10]; 125 g ai/ha) | Watergrass, Early plant response rating ([10]; 250 g ai/ha) | Plant response rating, Watergrass, Early ([10]; 16 g ai/ha) | Junglerice plant response rating ([11]; 32 g ai/ha) | Junglerice plant response rating ([11]; 64 g ai/ha) | Junglerice plant response rating ([11]; 125 g ai/ha) | Junglerice plant response rating ([11]; 250 g ai/ha) | Plant response rating, Junglerice ([11]; 16 g ai/ha) | Watergrass, Late plant response rating ([12]; 32 g ai/ha) | Watergrass, Late plant response rating ([12]; 64 g ai/ha) | Watergrass, Late plant response rating ([12]; 125 g ai/ha) | Watergrass, Late plant response rating ([12]; 250 g ai/ha) | Plant response rating, Watergrass, Late ([12]; 16 g ai/ha) | Redstem plant response rating ([13]; 32 g ai/ha) | Redstem plant response rating ([13]; 125 g ai/ha) | Plant response rating, Redstem ([13]; 16 g ai/ha) | Rice, Transplanted plant response rating ([15]; 32 g ai/ha) | Rice, Transplanted plant response rating ([15]; 64 g ai/ha) | Rice, Transplanted plant response rating ([15]; 125 g ai/ha) | Plant response rating, Rice, Transplanted ([15]; 16 g ai/ha) | Rice, Water Seeded plant response rating ([16]; 32 g ai/ha) | Rice, Water Seeded plant response rating ([16]; 64 g ai/ha) | Plant response rating, Rice, Water Seeded ([16]; 16 g ai/ha)
